Measured values from PMC8322070, “A novel orally active HDAC6 inhibitor T-518 shows a therapeutic potential for Alzheimer’s disease and tauopathy in mice” (Scientific Reports, 2021).

What was measured:
[1] = system: acetylated tubulin in hippocampus; assay: In vivo pharmacodynamics: acetylated tubulin in hippocampus (ELISA); settings: 0.3–300 mg/kg orally, 4 h after administration, C57BL/6J mice
Protocol: T-518, ACY-738, Ricolinostat, and Tubastatin A were synthesized in Takeda. For in vitro cellular experiments, the compounds were solubilized with DMSO and diluted in the culture medium at the indicated concentrations. For in vivo experiments, the compound was reconstituted in 0.5% methylcellulose and administered orally at the indicated doses. After administration, mouse hippocampus was isolated and homogenized in RIPA extraction buffer (50 mM Tris–HCl, 150 mM NaCl, 1% NP-40, 0.5% sodium deoxycholate, and 0.1% SDS, pH 8.0) supplemented with protease and phosphatase inhibitor cocktail (Thermo Fischer, Waltham, MA, USA). The homogenate was centrifuged at 10,000g for 15 min and the supernatant was taken as the RIPA-soluble fraction.
Acetylated α-tubulin and total tubulin levels were measured by sandwich ELISA. Ninety six-well plates (Microlite2+, Thermo) were coated with α-tubulin capture antibody (1:100) by overnight incubation at 4 °C, washed 4 times with PBS'T, treated with blocking buffer (1% bovine serum albumin in PBS'T) at 37 °C for 2 h, and washed another 4 times with PBS’T. Cell or tissues lysate was added to the wells and plates were incubated at 37 °C for 2 h. […]

human HDAC6 = target: T1, human HDAC6 (Homo sapiens, UniProt Q9UBN7); assay: HDAC enzyme assay (HDAC-Glo I/II), HDAC6; format: biochemical
T1 construct: purchased SignalChem Pharmaceutical Inc
T1 sequence (Q9UBN7 1-1215): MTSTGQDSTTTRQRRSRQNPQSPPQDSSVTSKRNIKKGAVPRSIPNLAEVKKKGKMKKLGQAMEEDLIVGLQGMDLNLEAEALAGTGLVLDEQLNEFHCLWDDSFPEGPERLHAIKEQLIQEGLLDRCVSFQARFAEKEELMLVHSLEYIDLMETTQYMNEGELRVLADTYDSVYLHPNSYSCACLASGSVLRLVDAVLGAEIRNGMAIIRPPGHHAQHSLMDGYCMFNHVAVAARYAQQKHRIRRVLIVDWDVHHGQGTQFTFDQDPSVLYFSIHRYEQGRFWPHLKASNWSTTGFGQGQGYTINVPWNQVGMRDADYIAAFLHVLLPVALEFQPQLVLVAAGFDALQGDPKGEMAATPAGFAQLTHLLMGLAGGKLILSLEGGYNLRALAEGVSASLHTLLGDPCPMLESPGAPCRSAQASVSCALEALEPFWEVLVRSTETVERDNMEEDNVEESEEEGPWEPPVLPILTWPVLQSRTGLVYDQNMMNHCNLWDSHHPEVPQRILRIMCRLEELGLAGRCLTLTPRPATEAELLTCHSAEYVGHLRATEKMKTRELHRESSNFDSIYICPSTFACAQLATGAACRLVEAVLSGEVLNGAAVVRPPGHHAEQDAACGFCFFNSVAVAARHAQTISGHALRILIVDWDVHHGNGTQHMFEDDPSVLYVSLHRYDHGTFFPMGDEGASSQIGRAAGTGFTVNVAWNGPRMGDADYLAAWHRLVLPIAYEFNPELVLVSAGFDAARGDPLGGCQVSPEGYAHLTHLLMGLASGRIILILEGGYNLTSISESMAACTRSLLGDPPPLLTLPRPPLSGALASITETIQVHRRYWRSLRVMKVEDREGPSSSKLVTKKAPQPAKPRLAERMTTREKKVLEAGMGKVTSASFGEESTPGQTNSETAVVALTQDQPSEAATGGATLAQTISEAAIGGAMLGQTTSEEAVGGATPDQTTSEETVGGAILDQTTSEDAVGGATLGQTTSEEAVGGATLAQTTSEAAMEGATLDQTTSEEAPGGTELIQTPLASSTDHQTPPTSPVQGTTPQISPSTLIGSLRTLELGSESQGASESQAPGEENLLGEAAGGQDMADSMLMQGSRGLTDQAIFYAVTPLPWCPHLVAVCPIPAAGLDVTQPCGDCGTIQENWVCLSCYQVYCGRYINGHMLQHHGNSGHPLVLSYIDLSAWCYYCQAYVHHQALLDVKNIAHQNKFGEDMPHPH
Protocol: Recombinant HDAC6, HDAC7, HDAC1 were obtained from SignalChem Pharmaceutical Inc. (Richmond, BC, Canada), and recombinant human HDAC4 was prepared at Takeda pharmaceutical company. One μL of T-518 diluted with DMSO was added to 75 μL of assay buffer (24 mM Tris–HCl (pH 7.5), 135 mM NaCl, 0.35 mM KCl, 1 mM MgCl2, 0.01% Tween 20, 0.6 mM GSH) in 384 well plates. Two μL of diluted compounds were added to 384 well plates and 2 μL of recombinant HDAC enzymes was added and then centrifuged at 1000 rpm for 10 s. The final concentrations of each HDAC enzyme were as follows, human HDAC1, 170 pM; human HDAC6, […]; human HDAC4, 68 pM; human HDAC7, 13 pM. After incubation for 60 min at room temperature, 4 μL of HDAC-Glo reagent [HDAC-Glo I/II (Promega) for HDAC6 and HDAC1, HDAC-Glo class IIa (Promega) for HDAC4 and HDAC7] was added to start the reaction. After incubation for 20 min at room temperature, the luminescence was measured by Envision plate reader (PerkinElmer, Waltham, MA, USA). For experiments under the condition of 0 min preincubation, 4 μL of HDAC-Glo reagent was added at first to the 384 well plates including diluted compounds. […] After centrifugation at 1000 rpm for 10 s. and then incubation for 20 min at room temperature, the luminescence was measured by Envision. […] The inhibitory activity of T-518 was expressed as the value of IC50. […]

Structure (SMILES): O=C1c2cc(-c3nnc(C(F)F)o3)cnc2CN1[C@@H]1CCCC[C@H]1NC(=O)C(F)(F)C(F)(F)F [T-518, N-[(1R,2R)-2-{3-[5-(difluoromethyl)-1,3,4-oxadiazol-2-yl]-5-oxo-5H,6H,7H-pyrrolo[3,4-b]pyridin-6-yl}cyclohexyl]-2,2,3,3,3-pentafluoropropanamide]
- tubulin acetylation in hippocampi [1]: dose-dependently increased tubulin acetylation
- IC50 (human HDAC6; after 60 min of pre-incubation): 4.6 nM
- IC50 (human HDAC6; without pre-incubation): 36 nM
